Source: the NIST ThermoML archive (doi:10.1016/j.jct.2015.12.025)
Values joined by “and” are separate entries in the source; they are usually repeats but may differ in a detail not shown here. Equal entries are not always repeated. Numbers after ± are expanded uncertainties.

Key:
[1] = 102 kPa, Liquid, Vibrating tube method
[2] = refractive index (Na D-line) (dimensionless); conditions: 102 kPa, Liquid, Standard Abbe refractometry
[3] = xn = mol fraction of the nth substance listed; conditions: 102 kPa, Liquid, Vibrating tube method
[4] = refractive index (Na D-line) (dimensionless); xn = mol fraction of the nth substance listed; conditions: 102 kPa, Liquid, Standard Abbe refractometry

## C[Si]1(CCC(F)(F)F)O[Si](C)(CCC(F)(F)F)O[Si](C)(CCC(F)(F)F)O1 (stereo not drawn)
[1]; 308.15 K
  mass density: 1236.63 ± 1 kg/m3
[1]; 313.15 K
  mass density: 1230.05 ± 1 kg/m3
[1]; 318.15 K
  mass density: 1223.55 ± 1 kg/m3
[1]; 323.15 K
  mass density: 1216.99 ± 1 kg/m3
[2]; 308.15 K
  refractive index: 1.36011 ± 0.00035
[2]; 313.15 K
  refractive index: 1.35808 ± 0.00035
[2]; 318.15 K
  refractive index: 1.35609 ± 0.00035 and 1.35608 ± 0.00035
[2]; 323.15 K
  refractive index: 1.35407 ± 0.00035

## C[Si]1(CCC(F)(F)F)O[Si](C)(CCC(F)(F)F)O[Si](C)(CCC(F)(F)F)O1 (stereo not drawn) + CC(C)(C)c1ccccc1
[3]; 308.15 K, x1 = 1
  mass density: 1236.63 ± 1 kg/m3
[3]; 313.15 K, x1 = 1
  mass density: 1230.05 ± 1 kg/m3
[3]; 318.15 K, x1 = 1
  mass density: 1223.55 ± 1 kg/m3
[3]; 323.15 K, x1 = 1
  mass density: 1216.99 ± 1 kg/m3
[4]; 308.15 K, x1 = 1
  refractive index: 1.36011 ± 0.00035
[4]; 313.15 K, x1 = 1
  refractive index: 1.35808 ± 0.00035
[4]; 318.15 K, x1 = 1
  refractive index: 1.35609 ± 0.00035
[4]; 323.15 K, x1 = 1
  refractive index: 1.35407 ± 0.00035

## CC(C)(C)c1ccccc1 [(1,1-dimethylethyl)benzene]
[1]; 298.15 K
  mass density: 862.28 ± 1 kg/m3
[1]; 308.15 K
  mass density: 854.12 ± 1 kg/m3
[1]; 313.15 K
  mass density: 849.98 ± 1 kg/m3
[1]; 318.15 K
  mass density: 845.87 ± 1 kg/m3
[1]; 323.15 K
  mass density: 841.72 ± 1 kg/m3
[2]; 298.15 K
  refractive index: 1.49009 ± 0.00035
[2]; 308.15 K
  refractive index: 1.48509 ± 0.00035
[2]; 313.15 K
  refractive index: 1.48256 ± 0.00035
[2]; 318.15 K
  refractive index: 1.48007 ± 0.00035
[2]; 323.15 K
  refractive index: 1.47754 ± 0.00035

## COc1ccccc1 [anisole]
[1]; 298.15 K
  mass density: 989.32 ± 1 kg/m3
[1]; 308.15 K
  mass density: 980.04 ± 1 kg/m3
[1]; 313.15 K
  mass density: 975.25 ± 1 kg/m3
[1]; 318.15 K
  mass density: 970.52 ± 1 kg/m3
[1]; 323.15 K
  mass density: 965.73 ± 1 kg/m3
[2]; 298.15 K
  refractive index: 1.5146 ± 0.00035
[2]; 308.15 K
  refractive index: 1.50865 ± 0.00035
[2]; 313.15 K
  refractive index: 1.50604 ± 0.00035
[2]; 318.15 K
  refractive index: 1.50341 ± 0.00035
[2]; 323.15 K
  refractive index: 1.50073 ± 0.00035

## COc1ccccc1 [anisole] + C[Si]1(CCC(F)(F)F)O[Si](C)(CCC(F)(F)F)O[Si](C)(CCC(F)(F)F)O1
[3]; 308.15 K, x2 = 0
  mass density: 980.04 ± 1 kg/m3
[3]; 313.15 K, x2 = 0
  mass density: 975.25 ± 1 kg/m3
[3]; 318.15 K, x2 = 0
  mass density: 970.52 ± 1 kg/m3
[3]; 323.15 K, x2 = 0
  mass density: 965.73 ± 1 kg/m3
[4]; 308.15 K, x2 = 0
  refractive index: 1.50865 ± 0.00035
[4]; 313.15 K, x2 = 0
  refractive index: 1.50604 ± 0.00035
[4]; 318.15 K, x2 = 0
  refractive index: 1.50341 ± 0.00035
[4]; 323.15 K, x2 = 0
  refractive index: 1.50073 ± 0.00035

## CCc1ccccc1 [ethylbenzene]
[1]; 298.15 K
  mass density: 862.58 ± 1 kg/m3
[1]; 308.15 K
  mass density: 853.71 ± 1 kg/m3
[1]; 313.15 K
  mass density: 849.29 ± 1 kg/m3
[1]; 318.15 K
  mass density: 844.7 ± 1 kg/m3
[1]; 323.15 K
  mass density: 840.28 ± 1 kg/m3
[2]; 298.15 K
  refractive index: 1.49301 ± 0.00035
[2]; 303.15 K
  refractive index: 1.4903 ± 0.00035
[2]; 308.15 K
  refractive index: 1.4876 ± 0.00035
[2]; 313.15 K
  refractive index: 1.48491 ± 0.00035
[2]; 318.15 K
  refractive index: 1.48217 ± 0.00035
[2]; 323.15 K
  refractive index: 1.47944 ± 0.00035

## CCc1ccccc1 [ethylbenzene] + C[Si]1(CCC(F)(F)F)O[Si](C)(CCC(F)(F)F)O[Si](C)(CCC(F)(F)F)O1
[3]; 308.15 K, x2 = 0
  mass density: 853.71 ± 1 kg/m3
[3]; 313.15 K, x2 = 0
  mass density: 849.29 ± 1 kg/m3
[3]; 318.15 K, x2 = 0
  mass density: 844.7 ± 1 kg/m3
[3]; 323.15 K, x2 = 0
  mass density: 840.28 ± 1 kg/m3
[4]; 308.15 K, x2 = 0
  refractive index: 1.4876 ± 0.00035
[4]; 313.15 K, x2 = 0
  refractive index: 1.48491 ± 0.00035
[4]; 318.15 K, x2 = 0
  refractive index: 1.48217 ± 0.00035
[4]; 323.15 K, x2 = 0
  refractive index: 1.47944 ± 0.00035

## O=[N+]([O-])c1ccccc1 [nitrobenzene]
[1]; 298.15 K
  mass density: 1198.2 ± 1 kg/m3
[1]; 303.15 K
  mass density: 1193.25 ± 1 kg/m3
[1]; 308.15 K
  mass density: 1188.17 ± 1 kg/m3
[1]; 313.15 K
  mass density: 1183.21 ± 1 kg/m3
[1]; 318.15 K
  mass density: 1178.24 ± 1 kg/m3
[1]; 323.15 K
  mass density: 1173.26 ± 1 kg/m3
[2]; 298.15 K
  refractive index: 1.54992 ± 0.00035
[2]; 303.15 K
  refractive index: 1.54746 ± 0.00035
[2]; 308.15 K
  refractive index: 1.545 ± 0.00035
[2]; 313.15 K
  refractive index: 1.5425 ± 0.00035
[2]; 318.15 K
  refractive index: 1.54005 ± 0.00035
[2]; 323.15 K
  refractive index: 1.53757 ± 0.00035

## O=[N+]([O-])c1ccccc1 [nitrobenzene] + C[Si]1(CCC(F)(F)F)O[Si](C)(CCC(F)(F)F)O[Si](C)(CCC(F)(F)F)O1
[3]; 308.15 K, x2 = 0
  mass density: 1188.17 ± 1 kg/m3
[3]; 313.15 K, x2 = 0
  mass density: 1183.21 ± 1 kg/m3
[3]; 318.15 K, x2 = 0
  mass density: 1178.24 ± 1 kg/m3
[3]; 323.15 K, x2 = 0
  mass density: 1173.26 ± 1 kg/m3
[4]; 308.15 K, x2 = 0
  refractive index: 1.545 ± 0.00035
[4]; 313.15 K, x2 = 0
  refractive index: 1.5425 ± 0.00035
[4]; 318.15 K, x2 = 0
  refractive index: 1.54005 ± 0.00035
[4]; 323.15 K, x2 = 0
  refractive index: 1.53757 ± 0.00035
